Laboratory results published in PubChem BioAssay (NCI).
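Compound exposure: 48 hours, 5 concentrations, 96-well plates. At the GI50, growth is halved. Definition used: TGI = concentration required for complete inhibition of growth.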

Experiments:
Assay in all cases: NCI anticancer screen, dose series, 48 h
ACHN renal = tested on: ACHN renal
COLO 205 colon = tested on: COLO 205 colon
HCT-116 colon = tested on: HCT-116 colon
HCT-15 colon = tested on: HCT-15 colon
NCI-H226 lung = tested on: NCI-H226 lung
OVCAR-4 ovarian = tested on: OVCAR-4 ovarian
SNB-19 CNS = tested on: SNB-19 CNS
HCC-2998 colon = tested on: HCC-2998 colon
DU-145 prostate = tested on: DU-145 prostate
T-47D breast = tested on: T-47D breast

| SMILES | TGI (ACHN renal) | TGI (COLO 205 colon) | TGI (HCT-116 colon) | TGI (HCT-15 colon) | TGI (NCI-H226 lung) | TGI (OVCAR-4 ovarian) | TGI (SNB-19 CNS) | TGI (HCC-2998 colon) | TGI (DU-145 prostate) | TGI (T-47D breast) | GI50 (ACHN renal) | GI50 (DU-145 prostate) | GI50 (HCC-2998 colon) | GI50 (HCT-116 colon) | GI50 (HCT-15 colon) | GI50 (NCI-H226 lung) | GI50 (OVCAR-4 ovarian) | GI50 (SNB-19 CNS) | GI50 (T-47D breast) | GI50 (COLO 205 colon) |
| --- | --- | --- | --- | --- | --- | --- | --- | --- | --- | --- | --- | --- | --- | --- | --- | --- | --- | --- | --- | --- |
| O=C(CC(=O)N1N=C(c2ccccc2)C(N=Nc2ccc(C(=O)O)cc2)C1=O)Nc1ccc(F)cc1 (configuration not stated) | > 100 µM | > 100 µM | 28.8 µM | > 100 µM | 24 µM | > 100 µM | > 100 µM | – | – | – | – | – | – | – | – | – | – | – | – | – |
| c1ccc2c(CNCCCCCCNCc3cccc4ccccc34)cccc2c1 | 29.5 µM | 3.12 µM | 4.35 µM | 19.8 µM | 31.6 µM | 28.9 µM | – | – | – | – | – | – | – | – | – | – | – | – | – | – |
| CC#C[C@@]1(O)CCCC[C@@H]1O | > 100 µM | > 100 µM | > 100 µM | > 100 µM | > 100 µM | > 100 µM | > 100 µM | > 100 µM | – | – | – | – | – | – | – | – | – | – | – | – |
| Cc1cc(NS(=O)(=O)c2ccc(Nc3c4ccccc4nc4c(C(=O)Nc5ccc(S(=O)(=O)N=C(N)N)cc5)cccc34)cc2)no1 | > 100 µM | > 100 µM | > 100 µM | > 100 µM | – | > 100 µM | > 100 µM | > 100 µM | – | – | – | – | – | – | – | – | – | – | – | – |
| O=c1[nH]cc(CS(=O)(=O)Cc2c[nH]c(=O)[nH]c2=O)c(=O)[nH]1 | > 100 µM | > 100 µM | > 100 µM | > 100 µM | > 100 µM | > 100 µM | > 100 µM | – | > 100 µM | > 100 µM | – | – | – | – | – | – | – | – | – | – |
| COC(=O)/C=C/C(=O)C1C(C(=O)OC)C2(C(=O)OC)CCC1(C(=O)OC)N2 (configuration not stated) | – | > 100 µM | > 100 µM | > 100 µM | – | > 100 µM | > 100 µM | > 100 µM | – | – | – | – | – | – | – | – | – | – | – | – |
| Cc1cc(C)cc(-n2c3nc(=O)n(C)c(=O)c-3nc3ccccc32)c1 | > 100 µM | 24.8 µM | 59.8 µM | 73 µM | > 100 µM | 41.5 µM | 50.9 µM | 49.9 µM | – | – | – | – | – | – | – | – | – | – | – | – |
| COC(=O)C(=O)C1(CCC(C)=O)c2ccccc2-c2ccccc21 | > 100 µM | > 100 µM | > 100 µM | > 100 µM | > 100 µM | > 100 µM | > 100 µM | > 100 µM | – | – | – | – | – | – | – | – | – | – | – | – |
| O=C1c2ccccc2C(=O)c2c1ccc(C(Br)Br)c2[N+](=O)[O-] | 2.86 µM | – | 2.19 µM | 2.93 µM | 2.62 µM | 2.73 µM | 4.42 µM | 4.6 µM | 4.01 µM | 3.89 µM | 1.53 µM | 1.98 µM | 2.08 µM | 0.739 µM | 1.52 µM | 0.727 µM | 1.34 µM | 1.93 µM | 1.63 µM | – |
| COC(=O)C[CH](C(=O)OC)[Ge]([CH3])([CH3])[S]c1ccccc1 (configuration not stated) | 36.6 µM | 27.1 µM | 58.2 µM | 27.6 µM | 35.1 µM | 72.4 µM | 49.9 µM | > 100 µM | – | – | 18.4 µM | – | 40.4 µM | 27.9 µM | 13.2 µM | 13.8 µM | 18.1 µM | 19.5 µM | – | 13.9 µM |
| C=C(CN1CCN(c2ccccc2OC)CC1)c1ccc(C(=O)Nc2ccccc2N)cc1 | 4.95 µM | 37.2 µM | 18.3 µM | 31.3 µM | – | 23.6 µM | > 50 µM | 0.452 µM | 39.5 µM | 45.2 µM | 0.856 µM | 3.8 µM | 0.27 µM | 6.02 µM | 2.03 µM | – | 3.2 µM | 12.1 µM | 10.8 µM | 8.31 µM |
| Cc1cccc(NC(=O)C(=O)C2C(=O)NC(=O)NC2=O)c1C | > 100 µM | > 100 µM | > 100 µM | > 100 µM | > 100 µM | > 100 µM | > 100 µM | > 100 µM | – | – | – | – | – | – | – | – | – | – | – | – |
| CCN(CC)CCN1C(=O)c2c(c(C)c3c(oc4cc(O)ccc43)c2C)C1=O | 2.89 µM | 5.77 µM | – | 3.32 µM | 4.38 µM | 3.37 µM | 3.21 µM | 3.03 µM | 3.41 µM | 6.44 µM | 1.56 µM | 1.72 µM | 1.62 µM | – | 1.69 µM | 2.06 µM | 1.69 µM | 1.68 µM | 2.28 µM | 2.18 µM |
| CC(C)[C@@H]1C=C(c2ccccc2)c2ccccc2C1C(C#N)(C#N)C(C)C (some centres not stated) | > 100 µM | > 100 µM | > 100 µM | > 100 µM | > 100 µM | > 100 µM | > 100 µM | > 100 µM | – | – | – | – | – | – | – | – | – | – | – | – |
| Cn1cnc([N+](=O)[O-])c1Sc1ccccn1 | > 100 µM | > 100 µM | > 100 µM | – | > 100 µM | > 100 µM | > 100 µM | > 100 µM | – | – | – | – | – | – | – | – | – | – | – | – |
| C=CN1C(=O)OC(c2ccccc2)C1c1ccccc1 (configuration not stated) | > 100 µM | > 100 µM | > 100 µM | > 100 µM | > 100 µM | > 100 µM | > 100 µM | > 100 µM | – | – | > 100 µM | – | > 100 µM | > 100 µM | > 100 µM | > 100 µM | > 100 µM | > 100 µM | – | > 100 µM |
| N#Cc1cccc(NC(=O)c2ccc(C(=O)O)c(C(=O)c3ccc(C(=O)O)c(C(=O)Nc4cccc(C#N)c4)c3)c2)c1 | – | > 100 µM | > 100 µM | > 100 µM | > 100 µM | > 100 µM | > 100 µM | – | – | – | – | – | – | – | – | – | – | – | – | – |
| COc1ccc(-c2oc(=O)ccc2C#Cc2cc(OC)c(OC)c(OC)c2)cc1O | 44.3 µM | > 100 µM | > 100 µM | > 100 µM | > 100 µM | > 100 µM | > 100 µM | – | > 100 µM | > 100 µM | 11.6 µM | 38.6 µM | – | 18.6 µM | 26.3 µM | 50.5 µM | 67 µM | 31.4 µM | 30.7 µM | 89.5 µM |
| COC(=O)c1c[nH]c(=O)[nH]c1=O | > 100 µM | > 100 µM | > 100 µM | > 100 µM | – | – | > 100 µM | > 100 µM | > 100 µM | > 100 µM | – | – | – | – | – | – | – | – | – | – |
| CCCCCCCCCCCC(=O)OCC1OC(n2cc(F)c(=O)[nH]c2=O)C(NC(=O)OCc2ccccc2)C(O)C1O (configuration not stated) | > 100 µM | 39.7 µM | 30.3 µM | 43.5 µM | – | 63.9 µM | 75.5 µM | 32.9 µM | – | – | – | – | – | – | – | – | – | – | – | – |
